The values that follow come from paper PMC11005823 (Frontiers in Microbiology, 2024).

For one assay, the target named is T1, EcoFiu (Fiu_A694C-FM) (Escherichia coli, UniProt P75780, A694C).
T1 sequence (P75780 32-760 A694C): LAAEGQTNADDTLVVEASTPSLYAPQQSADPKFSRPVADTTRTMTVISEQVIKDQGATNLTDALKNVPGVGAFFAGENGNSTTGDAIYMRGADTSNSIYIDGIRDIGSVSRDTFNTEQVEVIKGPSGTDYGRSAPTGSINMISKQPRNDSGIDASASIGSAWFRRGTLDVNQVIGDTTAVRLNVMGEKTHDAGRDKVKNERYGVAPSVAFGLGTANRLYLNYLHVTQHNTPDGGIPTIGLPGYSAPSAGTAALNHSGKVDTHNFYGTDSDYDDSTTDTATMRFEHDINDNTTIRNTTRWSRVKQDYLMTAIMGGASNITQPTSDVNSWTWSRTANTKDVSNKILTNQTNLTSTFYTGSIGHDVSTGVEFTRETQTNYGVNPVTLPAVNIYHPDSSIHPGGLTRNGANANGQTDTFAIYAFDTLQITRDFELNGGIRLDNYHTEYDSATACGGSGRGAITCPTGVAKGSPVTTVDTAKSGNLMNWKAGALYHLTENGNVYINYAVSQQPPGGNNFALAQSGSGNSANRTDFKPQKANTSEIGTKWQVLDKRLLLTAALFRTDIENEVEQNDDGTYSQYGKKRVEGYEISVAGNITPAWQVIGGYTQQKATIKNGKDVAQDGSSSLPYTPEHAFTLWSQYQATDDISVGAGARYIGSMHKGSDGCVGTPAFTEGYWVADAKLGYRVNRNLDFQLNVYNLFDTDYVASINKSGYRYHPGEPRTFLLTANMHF
Put plainly: biochemical. Type of assay: binding.

In the next assay the target is EcoCir (Escherichia coli, UniProt P17315). It is filed as binding.
Sequence of EcoCir (P17315 26-663): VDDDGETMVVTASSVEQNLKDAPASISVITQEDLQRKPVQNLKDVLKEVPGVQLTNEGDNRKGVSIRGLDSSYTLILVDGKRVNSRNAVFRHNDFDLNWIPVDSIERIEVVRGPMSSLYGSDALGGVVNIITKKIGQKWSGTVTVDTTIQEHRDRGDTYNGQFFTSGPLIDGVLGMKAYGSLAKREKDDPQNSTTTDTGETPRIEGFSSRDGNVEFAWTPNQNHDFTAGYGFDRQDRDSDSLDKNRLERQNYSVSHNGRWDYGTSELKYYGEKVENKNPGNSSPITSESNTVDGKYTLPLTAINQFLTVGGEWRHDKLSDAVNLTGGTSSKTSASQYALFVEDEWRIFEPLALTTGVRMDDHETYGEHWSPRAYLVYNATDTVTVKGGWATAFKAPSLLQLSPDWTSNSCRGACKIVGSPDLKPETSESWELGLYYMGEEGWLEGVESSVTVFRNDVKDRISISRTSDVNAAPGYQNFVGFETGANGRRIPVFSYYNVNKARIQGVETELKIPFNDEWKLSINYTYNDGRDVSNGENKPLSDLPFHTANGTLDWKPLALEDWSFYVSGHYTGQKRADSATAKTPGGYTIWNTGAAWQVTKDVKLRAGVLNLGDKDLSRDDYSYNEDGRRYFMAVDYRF
Another assay concerns the target T2, AbaPirA (Acinetobacter baumannii, UniProt D0C8V9).
T2 sequence (D0C8V9 25-754): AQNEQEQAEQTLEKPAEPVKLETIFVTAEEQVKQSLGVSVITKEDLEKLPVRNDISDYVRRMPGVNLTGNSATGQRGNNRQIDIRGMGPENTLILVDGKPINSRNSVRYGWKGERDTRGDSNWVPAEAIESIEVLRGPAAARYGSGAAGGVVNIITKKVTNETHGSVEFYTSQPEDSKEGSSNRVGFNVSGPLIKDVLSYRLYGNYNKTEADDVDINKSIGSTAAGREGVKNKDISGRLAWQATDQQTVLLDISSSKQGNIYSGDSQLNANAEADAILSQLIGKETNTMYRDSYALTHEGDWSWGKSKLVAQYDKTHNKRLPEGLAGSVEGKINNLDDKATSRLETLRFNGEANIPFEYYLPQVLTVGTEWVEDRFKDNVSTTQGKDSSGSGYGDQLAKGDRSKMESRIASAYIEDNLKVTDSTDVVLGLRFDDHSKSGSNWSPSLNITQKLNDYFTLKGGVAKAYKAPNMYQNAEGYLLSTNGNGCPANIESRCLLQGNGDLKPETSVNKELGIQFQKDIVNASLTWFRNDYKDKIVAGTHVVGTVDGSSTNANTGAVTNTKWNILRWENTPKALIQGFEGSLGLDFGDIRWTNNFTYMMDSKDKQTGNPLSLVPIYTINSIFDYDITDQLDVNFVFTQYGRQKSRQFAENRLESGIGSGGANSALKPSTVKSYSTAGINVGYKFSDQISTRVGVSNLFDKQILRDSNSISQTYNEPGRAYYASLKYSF
The following applies: read-out: apparent KD; AbaPirA sensor; NB = no binding.

In a further assay the target is T3, AbaBauA (Acinetobacter baumannii, UniProt Q76HJ9).
T3 sequence (Q76HJ9 23-725): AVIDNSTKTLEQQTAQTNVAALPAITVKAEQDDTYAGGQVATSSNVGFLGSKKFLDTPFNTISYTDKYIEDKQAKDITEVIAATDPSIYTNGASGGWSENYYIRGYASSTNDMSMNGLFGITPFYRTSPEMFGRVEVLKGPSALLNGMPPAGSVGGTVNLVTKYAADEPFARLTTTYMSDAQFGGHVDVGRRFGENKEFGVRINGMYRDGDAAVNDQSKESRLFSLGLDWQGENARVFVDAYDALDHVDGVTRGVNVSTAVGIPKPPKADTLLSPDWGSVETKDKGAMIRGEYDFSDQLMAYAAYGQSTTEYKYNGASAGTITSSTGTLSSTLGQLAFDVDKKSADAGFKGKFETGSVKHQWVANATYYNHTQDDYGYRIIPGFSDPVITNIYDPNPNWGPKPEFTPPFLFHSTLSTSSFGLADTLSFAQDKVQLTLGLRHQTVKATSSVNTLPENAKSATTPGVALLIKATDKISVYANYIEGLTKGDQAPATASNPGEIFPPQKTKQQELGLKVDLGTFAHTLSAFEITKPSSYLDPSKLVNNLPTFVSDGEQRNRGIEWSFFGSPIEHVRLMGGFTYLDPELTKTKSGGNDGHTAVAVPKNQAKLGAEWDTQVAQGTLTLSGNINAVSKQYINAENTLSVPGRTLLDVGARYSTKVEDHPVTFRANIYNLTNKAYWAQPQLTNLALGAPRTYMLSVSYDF
The following applies: AbaBauA sensor; NB = no binding; read-out: apparent KD.

Another assay addresses T4, AbaPiuA (Acinetobacter baumannii, UniProt D0CAH3).
T4 sequence (D0CAH3 29-743): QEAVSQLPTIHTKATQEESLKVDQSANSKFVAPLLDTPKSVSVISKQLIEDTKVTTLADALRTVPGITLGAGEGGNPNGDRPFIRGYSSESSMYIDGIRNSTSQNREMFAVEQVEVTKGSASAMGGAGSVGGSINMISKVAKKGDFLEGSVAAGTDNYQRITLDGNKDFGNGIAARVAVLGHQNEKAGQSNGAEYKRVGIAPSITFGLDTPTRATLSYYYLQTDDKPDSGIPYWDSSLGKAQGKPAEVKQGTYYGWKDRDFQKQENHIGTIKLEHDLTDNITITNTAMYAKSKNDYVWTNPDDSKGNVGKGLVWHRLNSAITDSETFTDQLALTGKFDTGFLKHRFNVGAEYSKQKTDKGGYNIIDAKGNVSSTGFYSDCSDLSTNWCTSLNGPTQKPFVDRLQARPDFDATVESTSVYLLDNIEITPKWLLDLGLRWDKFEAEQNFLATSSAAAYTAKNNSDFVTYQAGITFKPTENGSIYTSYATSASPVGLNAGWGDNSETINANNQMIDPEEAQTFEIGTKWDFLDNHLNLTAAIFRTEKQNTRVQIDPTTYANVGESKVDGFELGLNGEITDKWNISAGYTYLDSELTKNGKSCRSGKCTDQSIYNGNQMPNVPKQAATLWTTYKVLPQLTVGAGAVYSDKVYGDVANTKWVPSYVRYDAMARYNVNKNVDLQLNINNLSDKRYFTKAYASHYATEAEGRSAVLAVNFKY
The following applies: read-out: apparent KD; AbaPiuA sensor; NB = no binding.

In another assay the target is T5, Fiu N554C-FM (Escherichia coli, UniProt P75780, N554C).
T5 sequence (P75780 32-760 N554C): T1 sequence (P75780 32-760 A694C) with N523C, C663A
Type of assay: binding. The following applies: Fiu Cys mutant N554C-FM (positive control); read-out: Affinity: apparent KD.

For assay [1], the system named is OKN359/pFiu Fiu^+, FepA^−, Cir-. The note with it: summary in words; strains exclusively expressing Fiu.
Assay [2] concerns OKN359/pFepA Fiu^−, FepA^+, Cir-. The note with it: summary in words.
Another assay addresses EcoFepA. It is filed as binding, Escherichia coli. The note with it: read-out: apparent KD.
Assay [3] concerns OKN359/pCir Fiu^−, FepA^−, Cir^+. The following applies: summary in words.
The mark [4] stands for this setting: apparent KD, EcoFiu sensor (Fiu_A694C-FM; FeDHBA with Fiu_N554C-FM), NB = no binding.

Residue numbers refer to the chain shown, from its start. Several values for one entry are separate records, joined by “and”; a condition that tells them apart may be missing. Equal entries are not always repeated. Where two headings read alike, the source gives them in different places.

`O=C(N[C@@H](CO)C(=O)OC[C@H](NC(=O)c1cccc(O)c1[O-])C(=O)O)c1cccc([O-])c1[O-].[Fe+3]` [FeEnt*, Fe(DHBS)2]: on EcoFiu (Fiu_A694C-FM) (setting [4]), the Kd came out at 740 nM.

`CC(C)(O/N=C(\C(=O)N[C@@H]1C(=O)N2C(C(=O)O)=C(C[N+]3(CCNC(=O)c4ccc(O)c(O)c4Cl)CCCC3)CS[C@H]12)c1csc(N)n1)C(=O)O.[Fe+3]` [FeFDC]: the Kd on EcoFiu (Fiu_A694C-FM) (setting [4]) stood at 500 nM; on EcoFiu (Fiu_A694C-FM) (read-out: apparent KD, EcoFiu sensor (Fiu_A694C-FM; FeDHBA with Fiu_N554C-FM), NB = no binding), 400 ± 500 nM; at EcoCir (Cir), 60 nM; on EcoCir (read-out: apparent KD, EcoCir sensor, value marked ^1), 63 ± 6 nM; at AbaPirA, 6200 ± 2300 nM.

For ferric acinetobactin [FeAgn], the Kd on AbaBauA amounted to 2100 ± 400 nM.

`O=C(O)c1cccc(O)c1O.O=C(O)c1cccc(O)c1O.O=C(O)c1cccc(O)c1O.[Fe+3]` [FeDHBA]: the “fluorescence quenching at site A694C-FM” value at EcoFiu (Fiu_A694C-FM) (Fiu_A694C-FM) was “did not observe significant quenching”. Besides, the Kd amounted to 700 ± 100 nM on EcoFiu (Fiu_A694C-FM) (setting [4]), 15000 ± 3000 nM at AbaPiuA, 9400 ± 900 nM on AbaPirA and 700 nM on Fiu N554C-FM. For the same compound, the “transport by Fiu” value in assay [1] was “did not utilize”. Further, in [2], the “transport by FepA” value is “transported”.

Turning to `O=C(N[C@@H](CO)C(=O)O)c1cccc(O)c1O.O=C(N[C@@H](CO)C(=O)O)c1cccc(O)c1O.O=C(N[C@@H](CO)C(=O)O)c1cccc(O)c1O.[Fe+3]` [FeDHBS], the Kd was 1600 ± 300 nM at EcoFepA; 100 nM and ~100 nM at EcoFiu (Fiu_A694C-FM) (setting [4]); 90 ± 0.2 nM at EcoFiu (Fiu_A694C-FM) (apparent KD, EcoFiu sensor, value marked ^1); 7200 ± 900 nM at EcoCir (read-out: apparent KD, EcoCir sensor, NB = no binding); 161000 ± 40000 nM at AbaPirA. Further, the “transport by Fiu” value in assay [1] was “did not utilize”. In addition, in [3], the “transport by Cir” value is “weakly”.

On to `CC(C)(O/N=C(\C(=O)N[C@@H]1C(=O)N2C(C(=O)[O-])=C(C[N+]3(CCNC(=O)c4ccc([O-])c([O-])c4Cl)CCCC3)CS[C@H]12)c1csc(N)n1)C(=O)O.[Fe+3]` [FeFDC], for which, in assay [2], the “susceptibility of cells expressing only FepA” value was “not susceptible”.
